Assays:
[1] = Pharmacokinetic study in rats after single oral administration (plasma, LC-MS/MS); type: in vivo, male Sprague Dawley rats; conditions: 5 mg/kg single oral, male SD rats, mean ± SD; for Vd (apparent volume of distribution) / AUC(0-t) / Cmax / MRT / Tmax / half-life: n = 6; for AUC(0-t) / Cmax / MRT / Tmax / half-life / CL/F: Sprague Dawley, rat; for CL/F: n = 6, read-out: CL (CLz/F)
Procedure: (§1) Seventy-two male Sprague Dawley rats weighing 180–220 g (7-8 weeks old, Certificate no. SCXK (Shandong) 2014-0007) were supplied by Shandong Laboratory Animal Center, Shandong First Medical University & Shandong Academy of Medical Sciences. All rats were kept in plastic cages with 12 h day/night cycle under controlled temperature (about 23–25°C) and fed with standard laboratory rat diet and water ad libitum. All the animal welfare and experimental procedures were approved by the Animal Ethics Committee at the Institute of Materia Medica, Shandong First Medical University & Shandong Academy of Medical Sciences (Jinan, China) and strictly in accordance with the guide for the care and use of laboratory animals (National Research Council of USA, 1996).
For the pharmacokinetic studies, after fasting with free access to water for at least 12 h, twelve rats were randomly divided into two groups (n = 6). The brigatinib and brigatinib-analog were both dissolved in ethanol-0.5% methylcellulose (1 : 19) for dosing. The two group rats were intragastrically administered with brigatinib and brigatinib-analog at the same dose of 5 mg/kg, respectively.
Blood samples, about 100 μL of each, were placed in heparinized Eppendorf tubes predose and at 5, 15, 30, 60, 120, 180, 240, 300, 360, 480, 720, and 1,440 min postdose from the jugular vein of rats. The blood samples were immediately centrifuged at 3,500 rpm for 15 min at 4°C, and the plasma samples were transferred carefully from each collection and stored at −20°C until analysis.
(§2) Experimental data were expressed as mean ± standard deviation (SD). Drug and Statistics 2.0 (DAS 2.0) software package (Mathematical Pharmacology Professional Committee of China, Shanghai, China) was used for estimating pharmacokinetic and brain distribution parameters by a noncompartmental method. Statistical analyses were performed with statistical software IBM SPSS Statistics 20.0 (IBM Corporation, Armonk, NY, USA). Differences between two groups were evaluated by the t-test. A value of p < 0.05 was considered as statistically significant.

[2] = Brain distribution study in rats after single oral administration (brain homogenate, LC-MS/MS); type: in vivo, male Sprague Dawley rats; conditions: for blood-brain barrier penetration / Kp: 5 mg/kg oral, rats; for Cmax / MRT / Tmax / half-life / Kp: Sprague Dawley, rat; for Cmax / MRT / Tmax / half-life / AUC(0–t): brain, 5 mg/kg single oral, male SD rats, mean ± SD, n = 6; for Kp: male, average AUC(0–t) brain to plasma, 1 g brain taken as 1 mL plasma, read-out: ratio of AUCbrain/AUCplasma
Procedure: as §1
For the brain distribution studies, the remaining sixty rats were randomly divided into ten groups (n = 6, per group). The distributions of brigatinib and brigatinib-analog in the rat brain were also investigated at the dose of 5 mg/kg after single oral administration to rats. The whole brain was excised immediately at 5, 60, 240, 480, and 1,440 min postdose, thoroughly rinsed with 0.9% saline solution, and wiped with a filter paper. Each brain sample was weighed accurately and homogenized in double distilled water (1 : 5, w/v) by using a tissue homogenizer (IKA, Germany) and frozen at −20°C until analysis.
as §2

[3] = Stability of QC samples in rat plasma under various storage conditions; type: in vitro ADME; conditions: for Stability under the storage conditions investigated: rat plasma and brain homogenate QC samples, 6 h ambient, −20°C 10 d, three freeze-thaw cycles, 24 h at 4°C autosampler; for Measured conc. after ambient temperature for 6 h / Measured conc. after autosampler at 4°C for 24 h / Measured conc. after three freeze-thaw cycles / Measured conc. after −20°C for 10 d: rat plasma, n = 6
Procedure: (§3) The stability of brigatinib and brigatinib-analog was evaluated by analysis of low and high concentration levels of QC samples under different conditions (n = 6). The temperature and timing conditions were as follows: 6 h at ambient temperature, stored at −20°C for 10 d, three freeze-thaw cycles, and 24 h at 4°C in an autosampler. The measured concentrations were all within acceptable limits (±15% of the nominal concentrations) during the entire validation. […] Carryover was evaluated by determining the peak areas for brigatinib and brigatinib-analog by injecting blank matrix samples sequentially after the highest calibration standard sample injection. Furthermore, no carryover effect was obtained in this study.

[4] = Stability of QC samples in rat brain homogenate under various storage conditions; type: in vitro ADME; conditions: n = 6
Procedure: as §3

[5] = tested on: the triple mutation; parameters: method as in PMID 28287083, PMID 27780853; conditions: read-out: IC50 against the triple mutation; cited from earlier work

Row | SMILES | Vd (apparent volume of distribution) [1] | AUC(0-t) [1] | Cmax [1] | MRT [1] | Tmax [1] | half-life [1] | CL/F [1] | blood-brain barrier penetration [2] | Cmax [2] | MRT [2] | Tmax [2] | half-life [2] | AUC(0–t) [2] | Kp [2] | Stability under the storage conditions investigated [3] | Measured conc. after ambient temperature for 6 h ([3]; spiked 2.0 ng/mL) | Measured conc. after autosampler at 4°C for 24 h ([3]; spiked 2.0 ng/mL) | Measured conc. after three freeze-thaw cycles ([3]; spiked 2.0 ng/mL) | Measured conc. after −20°C for 10 d ([3]; spiked 2.0 ng/mL) | Measured conc. after ambient temperature for 6 h ([3]; spiked 1600 ng/mL) | further results
1 | COc1cc(N2CCC(N(C)C)CC2)ccc1Nc1ncc(Cl)c(Nc2ccccc2P(C)(C)=O)n1 [Brigatinib-analog] | 3.43 ± 0.96 L/kg | 4.37 µg·h/mL | 0.734 ± 0.0831 µg/mL | 5.48 h | 4.33 h | 2.01 ± 0.496 h | 1.26 ± 0.36 L/h/kg | could both penetrate the blood-brain barrier | 45.8 ± 11.8 ng/g | 6.32 h | 4 h | 4.27 ± 0.667 h | 23196.08 ± 4932.95^∗ ng/g·min | 0.088 | stable | 2.03 ± 0.11 ng/mL | 1.89 ± 0.12 ng/mL | 2.01 ± 0.09 ng/mL | 1.95 ± 0.12 ng/mL | 1638.54 ± 97.76 ng/mL | Measured conc. after autosampler at 4°C for 24 h ([3]; spiked 1600 ng/mL): 1582.61 ± 101.88 ng/mL; Measured conc. after three freeze-thaw cycles ([3]; spiked 1600 ng/mL): 1578.36 ± 125.20 ng/mL; Measured conc. after −20°C for 10 d ([3]; spiked 1600 ng/mL): 1705.49 ± 109.83 ng/mL; Measured conc. after ambient temperature for 6 h ([4]; spiked 1.0 ng/mL): 1.04 ± 0.05 ng/mL; Measured conc. after autosampler at 4°C for 24 h ([4]; spiked 1.0 ng/mL): 0.97 ± 0.06 ng/mL; Measured conc. after three freeze-thaw cycles ([4]; spiked 1.0 ng/mL): 0.98 ± 0.07 ng/mL; Measured conc. after −20°C for 10 d ([4]; spiked 1.0 ng/mL): 1.07 ± 0.11 ng/mL; Measured conc. after ambient temperature for 6 h ([4]; spiked 800 ng/mL): 828.64 ± 66.54 ng/mL; Measured conc. after autosampler at 4°C for 24 h ([4]; spiked 800 ng/mL): 783.28 ± 32.39 ng/mL; Measured conc. after three freeze-thaw cycles ([4]; spiked 800 ng/mL): 833.68 ± 56.59 ng/mL; Measured conc. after −20°C for 10 d ([4]; spiked 800 ng/mL): 846.09 ± 53.83 ng/mL; IC50 [5]: < 0.1 µM
2 | COc1cc(N2CCC(N3CCN(C)CC3)CC2)ccc1Nc1ncc(Cl)c(Nc2ccccc2P(C)(C)=O)n1 [Brigatinib] | 5.66 ± 1.94 L/kg | 4.36 µg·h/mL | 0.538 ± 0.186 µg/mL | 6.73 h | 4.33 h | 3.16 ± 0.343 h | 1.32 ± 0.6 L/h/kg | could both penetrate the blood-brain barrier | 68.9 ± 21.6 ng/g | 7.48 h | 5.5 h | 5.32 ± 1.95 h | 58255.81 ± 13725.10 ng·min/g | 0.223 | stable | 2.10 ± 0.12 ng/mL | 1.90 ± 0.10 ng/mL | 1.94 ± 0.09 ng/mL | 2.05 ± 0.17 ng/mL | 1585.06 ± 98.31 ng/mL | Measured conc. after autosampler at 4°C for 24 h ([3]; spiked 1600 ng/mL): 1645.17 ± 118.52 ng/mL; Measured conc. after three freeze-thaw cycles ([3]; spiked 1600 ng/mL): 1678.34 ± 95.87 ng/mL; Measured conc. after −20°C for 10 d ([3]; spiked 1600 ng/mL): 1719.73 ± 107.09 ng/mL; Measured conc. after ambient temperature for 6 h ([4]; spiked 1.0 ng/mL): 1.06 ± 0.08 ng/mL; Measured conc. after autosampler at 4°C for 24 h ([4]; spiked 1.0 ng/mL): 0.96 ± 0.05 ng/mL; Measured conc. after three freeze-thaw cycles ([4]; spiked 1.0 ng/mL): 1.02 ± 0.06 ng/mL; Measured conc. after −20°C for 10 d ([4]; spiked 1.0 ng/mL): 0.97 ± 0.06 ng/mL; Measured conc. after ambient temperature for 6 h ([4]; spiked 800 ng/mL): 788.85 ± 69.25 ng/mL; Measured conc. after autosampler at 4°C for 24 h ([4]; spiked 800 ng/mL): 813.16 ± 72.23 ng/mL; Measured conc. after three freeze-thaw cycles ([4]; spiked 800 ng/mL): 847.44 ± 57.65 ng/mL; Measured conc. after −20°C for 10 d ([4]; spiked 800 ng/mL): 760.29 ± 48.33 ng/mL; IC50 [5]: < 0.1 µM

Reference: paper PMC6915135, “Simultaneous Quantification of Brigatinib and Brigatinib-Analog in Rat Plasma and Brain Homogenate by LC-MS/MS: Application to Comparative Pharmacokinetic and Brain Distribution Studies” (International Journal of Analytical Chemistry, 2019)
